Assay [1] concerns the target T1, human full-length MKNK1 (Homo sapiens (Human), UniProt Q9BUB5, T344D). Briefly: MKNK1 kinase assay (MKNK1 TR-FRET assay). In kind it is biochemical. Particulars: 10 μM ATP final conc.; 15 min preincubation with enzyme. The procedure:
MKNK1-inhibitory activity of compounds of the present invention was quantified employing the MKNK1 TR-FRET assay as described in the following paragraphs.
As substrate for the kinase reaction the biotinylated peptide biotin-Ahx-[…] (C-terminus in amide form) was used which can be purchased e.g. form the company Biosyntan (Berlin-Buch, Germany).
(§1) For the assay 50 nL of a 100 fold concentrated solution of the test compound in DMSO was pipetted into a black low volume 384 well microtiter plate (Greiner Bio-One, Frickenhausen, Germany), 2 μL of a solution of MKNK1 in aqueous assay buffer [50 mM HEPES pH 7.5, 5 mM magnesium chloride, 1.0 mM dithiothreitol, 0.005% (v/v) Nonidet-P40 (Sigma)] was added and the mixture was incubated for 15 min at 22° C. to allow pre-binding of the test compounds to the enzyme before the start of the kinase reaction. Then the kinase reaction was started by the addition of 3 μL of a solution of adenosine-tri-phosphate (ATP, 16.7 μM=>final conc. in the 5 μL assay volume is 10 μM) and substrate (0.1 μM=>final conc. in the 5 μL assay volume is 0.06 μM) in assay buffer and the resulting mixture was incubated for a reaction time of 45 min at 22° C. The concentration of MKNK1 was adjusted depending of the activity of the enzyme lot and was chosen appropriate to have the assay in the linear range, typical concentrations were in the range of 0.05 μg/ml. The reaction was stopped by the addition of 5 μL of a solution of TR-FRET detection reagents (5 nM streptavidine-XL665 [Cisbio Bioassays, Codolet, France] and 1 nM anti-ribosomal protein S6 (pSer236)-antibody from Invitrogen [#44921G] and 1 nM LANCE EU-W1024 labeled ProteinG [Perkin-Elmer, product no. AD0071]) in an aqueous EDTA-solution (100 mM EDTA, 0.1% (w/v) bovine serum albumin in 50 mM HEPES pH 7.5).
(§2) The resulting mixture was incubated for 1 h at 22° C. to allow the formation of complex between the phosphorylated biotinylated peptide and the detection reagents. Subsequently the amount of phosphorylated substrate was evaluated by measurement of the resonance energy transfer from the Eu-chelate to the streptavidine-XL. Therefore, the fluorescence emissions at 620 nm and 665 nm after excitation at 350 nm were measured in a TR-FRET reader, e.g. a Rubystar (BMG Labtechnologies, Offenburg, Germany) or a Viewlux (Perkin-Elmer). The ratio of the emissions at 665 nm and at […] was taken as the measure for the amount of phosphorylated substrate. The data were normalised (enzyme reaction without inhibitor=0% inhibition, all other assay components but no enzyme=100% inhibition).
For orientation: Time-resolved FRET reads energy transfer from a long-lived donor to a nearby acceptor.

For assay [2], the target named is T1, human full-length MKNK1. Briefly: MKNK1 kinase high ATP assay (TR-FRET-based). In kind it is biochemical. The following applies: 2 mM ATP final conc.; 15 min preincubation with enzyme. As for the experimental part: MKNK1 Kinase High ATP Assay
MKNK1-inhibitory activity at high ATP of compounds of the present invention after their preincubation with MKNK1 was quantified employing the TR-FRET-based MKNK1 high ATP assay as described in the following paragraphs.
As substrate for the kinase reaction the biotinylated peptide biotin-Ahx-[…] (C-terminus in amide form) was used, which can be purchased e.g. from the company Biosyntan (Berlin-Buch, Germany).
as §1, with “3.3 mM=>final” for “16.7 μM=>final”, “2 mM)” for “10 μM)”, “30” for “45”, “0.003 μg/mL.” for “0.05 μg/ml.”
as §2

SMILES strings stand for the structures.

The values below come from patent US9499547B2 (BAYER INTELLECTUAL PROPERTY GMBH, priority 2011, dated 2016).

Broadly, the IC50 is the concentration needed to halve the response being measured. A high value points to lower potency.

T1 sequence (Q9BUB5 other isoform, or with tags, fused parts or gaps T344D): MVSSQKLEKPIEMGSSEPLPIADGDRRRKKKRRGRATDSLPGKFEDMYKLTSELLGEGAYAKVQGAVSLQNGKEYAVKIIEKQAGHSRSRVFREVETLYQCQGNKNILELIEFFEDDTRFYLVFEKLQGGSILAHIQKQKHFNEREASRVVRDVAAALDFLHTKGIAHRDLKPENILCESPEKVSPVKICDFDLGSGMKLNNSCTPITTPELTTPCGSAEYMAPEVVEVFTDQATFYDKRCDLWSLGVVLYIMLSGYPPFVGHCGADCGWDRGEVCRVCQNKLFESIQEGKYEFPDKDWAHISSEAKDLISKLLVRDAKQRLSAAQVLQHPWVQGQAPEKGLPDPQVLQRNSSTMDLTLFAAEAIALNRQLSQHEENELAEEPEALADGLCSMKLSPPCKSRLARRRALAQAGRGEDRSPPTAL

For the molecule `COc1cccc2oc(-c3cnc4ccc(OCCCCN)nn34)cc12` [Example 1, 4-{[3-(4-Methoxy-1-benzofuran-2-yl)imidazo[1,2-b]pyridazin-6-yl]oxy}butan-1-amine], the IC50 is 0.003 µM against human full-length MKNK1 [1] and 0.005 µM at human full-length MKNK1 [2].

Consider `N[C@H]1C[C@H](Oc2ccc3ncc(-c4cc5ccccc5o4)n3n2)C1` [Example 2, trans-3-{[3-(1-Benzofuran-2-yl)imidazo[1,2-b]pyridazin-6-yl]oxy}cyclobutanamine], for which the IC50 at human full-length MKNK1 [1] worked out at 0.005 µM; against human full-length MKNK1 [2], 0.006 µM.

Take `N[C@H]1C[C@@H](Oc2ccc3ncc(-c4cc5ccccc5o4)n3n2)C1` [Example 3, cis-3-{[3-(1-Benzofuran-2-yl)imidazo[1,2-b]pyridazin-6-yl]oxy}cyclobutanamine]: the values for the half-inhibitory concentration (IC50) against human full-length MKNK1 [1] and against human full-length MKNK1 [2] were 0.004 µM and 0.017 µM, respectively.

Turning to `COc1cccc2oc(-c3cnc4ccc(OCCCN)nn34)cc12` [Example 4, 3-{[3-(4-Methoxy-1-benzofuran-2-yl)imidazo[1,2-b]pyridazin-6-yl]oxy}propan-1-amine], the IC50 at human full-length MKNK1 [1] turned out to be 0.005 µM; against human full-length MKNK1 [2] it was 0.015 µM.

Consider `COc1cccc2oc(-c3cnc4ccc(OCCN)nn34)cc12` [Example 5, 2-{[3-(4-Methoxy-1-benzofuran-2-yl)imidazo[1,2-b]pyridazin-6-yl]oxy}ethanamine], for which the IC50 at human full-length MKNK1 [1] is 0.006 µM; on human full-length MKNK1 [2], 0.018 µM.

As to `COc1ccc2oc(-c3cnc4ccc(OCCN)nn34)cc2c1` [Example 6, 2-{[3-(5-Methoxy-1-benzofuran-2-yl)imidazo[1,2-b]pyridazin-6-yl]oxy}ethanamine], the IC50 on human full-length MKNK1 [1] was 0.006 µM; against human full-length MKNK1 [2], 0.013 µM.

On to `C[C@H](N)COc1ccc2ncc(-c3cc4ccccc4o3)n2n1` [Example 7, (2S)-1-{[3-(1-Benzofuran-2-yl)imidazo[1,2-b]pyridazin-6-yl]oxy}propan-2-amine], for which the IC50 against human full-length MKNK1 [1] worked out at 0.007 µM; against human full-length MKNK1 [2], 0.018 µM.

Turning to `NCCCCOc1ccc2ncc(-c3cc4ccccc4o3)n2n1` [Example 8, 4-{[3-(1-Benzofuran-2-yl)imidazo[1,2-b]pyridazin-6-yl]oxy}butan-1-amine], the IC50 at human full-length MKNK1 [1] came out at 0.007 µM; against human full-length MKNK1 [2], 0.017 µM.

In the case of `COc1ccc2oc(-c3cnc4ccc(OCCCN)nn34)cc2c1` [Example 9, 3-{[3-(5-Methoxy-1-benzofuran-2-yl)imidazo[1,2-b]pyridazin-6-yl]oxy}propan-1-amine], the IC50 came out at 0.007 µM against human full-length MKNK1 [1] and 0.022 µM at human full-length MKNK1 [2].

`NCCCOc1ccc2ncc(-c3cc4ccccc4o3)n2n1` [Example 11, 3-{[3-(1-Benzofuran-2-yl)imidazo[1,2-b]pyridazin-6-yl]oxy}propan-1-amine]: the results for the IC50 on human full-length MKNK1 [1] and against human full-length MKNK1 [2] were 0.008 µM and 0.024 µM, respectively.

Turning to `NCCOc1ccc2ncc(-c3cc4ccccc4o3)n2n1` [Example 12, 2-{[3-(1-Benzofuran-2-yl)imidazo[1,2-b]pyridazin-6-yl]oxy}ethanamine], the values for the IC50 against human full-length MKNK1 [1] and at human full-length MKNK1 [2] were 0.01 µM and 0.027 µM, respectively.

Take `CC(C)(N)CCOc1ccc2ncc(-c3cc4ccccc4o3)n2n1` [Example 14, 4-{[3-(1-Benzofuran-2-yl)imidazo[1,2-b]pyridazin-6-yl]oxy}-2-methylbutan-2-amine]: the results for the IC50 at human full-length MKNK1 [1] and at human full-length MKNK1 [2] were 0.02 µM and 0.039 µM, respectively.

`C[C@H](CN)Oc1ccc2ncc(-c3cc4cc(Cl)ccc4o3)n2n1` [Example 15, (2R)-2-{[3-(5-Chloro-1-benzofuran-2-yl)imidazo[1,2-b]pyridazin-6-yl]oxy}-propan-1-amine]: the values for the IC50 at human full-length MKNK1 [1] and on human full-length MKNK1 [2] were 0.036 µM and 0.197 µM, respectively.

Consider `NC[C@H](Oc1ccc2ncc(-c3cc4ccccc4o3)n2n1)c1ccccc1` [Example 16, (2R)-2-{[3-(1-Benzofuran-2-yl)imidazo[1,2-b]pyridazin-6-yl]oxy}-2-phenylethanamine], for which the IC50 at human full-length MKNK1 [1] is 0.026 µM; against human full-length MKNK1 [2], 0.049 µM.

Take `N[C@H](COc1ccc2ncc(-c3cc4ccccc4o3)n2n1)c1ccccc1` [Example 17, (1S)-2-{[3-(1-Benzofuran-2-yl)imidazo[1,2-b]pyridazin-6-yl]oxy}-1-phenylethanamine]: the figures for the IC50 against human full-length MKNK1 [1] and on human full-length MKNK1 [2] were 0.006 µM and 0.01 µM, respectively.

For the molecule `N[C@@H](COc1ccc2ncc(-c3cc4ccccc4o3)n2n1)c1ccccc1` [Example 18, (1R)-2-{[3-(1-Benzofuran-2-yl)imidazo[1,2-b]pyridazin-6-yl]oxy}-1-phenylethanamine], the IC50 on human full-length MKNK1 [1] came to 0.022 µM; against human full-length MKNK1 [2], 0.033 µM.

Consider `N[C@H](COc1ccc2ncc(-c3cc4cc(Cl)ccc4o3)n2n1)c1ccccc1` [Example 19, (1S)-2-{[3-(5-Chloro-1-benzofuran-2-yl)imidazo[1,2-b]pyridazin-6-yl]oxy}-1-phenylethanamine], for which the IC50 on human full-length MKNK1 [1] turned out to be 0.025 µM; at human full-length MKNK1 [2] it was 0.111 µM.

`NCCOCCOc1ccc2ncc(-c3cc4ccccc4o3)n2n1` [Example 21, 2-(2-{[3-(1-Benzofuran-2-yl)imidazo[1,2-b]pyridazin-6-yl]oxy}ethoxy)ethanamine] yielded an IC50 against human full-length MKNK1 [2] of 0.014 µM.

Consider `N[C@@H]1CCCC[C@H]1Oc1ccc2ncc(-c3cc4ccccc4o3)n2n1` [Example 23, (1R,2R)-2-{[3-(1-Benzofuran-2-yl)imidazo[1,2-b]pyridazin-6-yl]oxy}cyclohexanamine], for which half-maximal inhibition on human full-length MKNK1 [2] (IC50) was put at 0.018 µM.

As for `NC1(COc2ccc3ncc(-c4cc5ccccc5o4)n3n2)CCC1` [Example 27, 1-({[3-(1-Benzofuran-2-yl)imidazo[1,2-b]pyridazin-6-yl]oxy}methyl)cyclobutanamine], the IC50 at human full-length MKNK1 [2] was 0.029 µM.

`C=CCCC(CN)Oc1ccc2ncc(-c3cc4ccccc4o3)n2n1` (stereo not drawn) [Example 28, 2-{[3-(1-Benzofuran-2-yl)imidazo[1,2-b]pyridazin-6-yl]oxy}hex-5-en-1-amine] yielded an IC50 against human full-length MKNK1 [2] of 0.045 µM.

On to `NCC(CN1CCOCC1)Oc1ccc2ncc(-c3cc4ccccc4o3)n2n1` (stereo not drawn) [Example 31, 2-{[3-(1-Benzofuran-2-yl)imidazo[1,2-b]pyridazin-6-yl]oxy}-3-(morpholin-4-yl)-propan-1-amine], for which the IC50 against human full-length MKNK1 [2] is 0.078 µM.

Take `NC(COc1ccc2ncc(-c3cc4ccccc4o3)n2n1)C1CCOCC1` (stereo not drawn) [Example 32, 2-{[3-(1-Benzofuran-2-yl)imidazo[1,2-b]pyridazin-6-yl]oxy}-1-(tetrahydro-2H-pyran-4-yl)ethanamine]: the IC50 against human full-length MKNK1 [2] came out at 0.079 µM.

`NCC(Cc1ccc(F)cc1)Oc1ccc2ncc(-c3cc4ccccc4o3)n2n1` (stereo not drawn) [Example 53, 2-{[3-(1-Benzofuran-2-yl)imidazo[1,2-b]pyridazin-6-yl]oxy}-3-(4-fluorophenyl)-propan-1-amine] came in with an IC50 at human full-length MKNK1 [2] of 0.046 µM.

With `NCC(Cc1ccncc1)Oc1ccc2ncc(-c3cc4ccccc4o3)n2n1` (stereo not drawn) [Example 54, 2-{[3-(1-Benzofuran-2-yl)imidazo[1,2-b]pyridazin-6-yl]oxy}-3-(pyridin-4-yl)-propan-1-amine], the IC50 against human full-length MKNK1 [2] was 0.019 µM.
